# The source made the active and inactive calls.
# Experiments:
# Beta-galactosidase = Beta-galactosidase (Escherichia coli, UniProt Q8VNN2); assay: Dose response counterscreen for EBI2 assay utilizing the enzyme, b-galactosidase.; assay type: functional
# Galanin receptor type 3 = Galanin receptor type 3 (Homo sapiens, UniProt O60755); assay: Fluorescence-based cell-based primary high throughput dose response assay to identify antagonists of the Galanin Receptor 3 (GalR3).; assay type: functional
# Chain of Galanin receptor type 3 (O60755 whole entry): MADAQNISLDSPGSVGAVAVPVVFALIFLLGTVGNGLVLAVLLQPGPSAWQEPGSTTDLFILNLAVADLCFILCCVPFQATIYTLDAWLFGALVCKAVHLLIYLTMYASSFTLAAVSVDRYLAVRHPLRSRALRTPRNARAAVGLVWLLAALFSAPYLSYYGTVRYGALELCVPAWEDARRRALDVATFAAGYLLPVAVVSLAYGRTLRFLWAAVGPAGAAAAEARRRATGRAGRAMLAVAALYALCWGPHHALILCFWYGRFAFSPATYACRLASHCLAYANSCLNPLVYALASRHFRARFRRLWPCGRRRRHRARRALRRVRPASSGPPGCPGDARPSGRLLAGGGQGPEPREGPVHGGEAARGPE
# cells [1] = assay type: functional, cell-based; conditions: HEK-CNG
# [2] = target: ADP-ribosylation factor GTPase-activating protein 1 (Rattus norvegicus, UniProt Q62848); assay: Fluorescence polarization-based biochemical high throughput dose response screening assay to identify inhibitors of ADP-ribosylation factor GTPase activating protein 1 (ARFGAP1).; assay type: functional
# Chain of ADP-ribosylation factor GTPase-activating protein 1 (Q62848 whole entry): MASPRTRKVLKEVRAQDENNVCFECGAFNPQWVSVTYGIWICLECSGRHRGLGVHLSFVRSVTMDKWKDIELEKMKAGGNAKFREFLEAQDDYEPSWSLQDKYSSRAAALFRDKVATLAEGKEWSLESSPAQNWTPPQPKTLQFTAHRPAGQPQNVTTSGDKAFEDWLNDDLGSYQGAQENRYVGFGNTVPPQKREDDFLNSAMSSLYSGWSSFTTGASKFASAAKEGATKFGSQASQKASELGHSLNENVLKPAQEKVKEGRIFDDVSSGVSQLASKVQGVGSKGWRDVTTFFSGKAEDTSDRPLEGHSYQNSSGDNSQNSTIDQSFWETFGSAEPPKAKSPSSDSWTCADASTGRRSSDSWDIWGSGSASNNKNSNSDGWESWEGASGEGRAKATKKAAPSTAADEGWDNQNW
# [3] = human group III sPLA2 inhibitors, dose response, biochemical, QFRET, IC50 (AID 743457);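 also: green fluorescence rise as the enzyme cleaves BODIPY PC-A2 in liposomes; potency for inhibition of the enzyme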
# [4] = target: T1, Small ubiquitin-related modifier 1 (Homo sapiens, UniProt P63165); assay: inhibitors of SUMO1 peptide binding, dose response, biochemical, fluorescence polarization, uHTS hits (AID 624382); assay type: functional; conditions: read-out: IC50_Mean
# T1 sequence (P63165 whole entry): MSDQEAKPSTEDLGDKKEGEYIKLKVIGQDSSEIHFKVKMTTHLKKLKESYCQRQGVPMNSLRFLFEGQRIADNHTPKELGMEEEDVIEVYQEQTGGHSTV
# [5] = target: Induced myeloid leukemia cell differentiation protein Mcl-1 (Homo sapiens, UniProt Q07820); assay type: functional
# Chain of Induced myeloid leukemia cell differentiation protein Mcl-1 (Q07820 whole entry): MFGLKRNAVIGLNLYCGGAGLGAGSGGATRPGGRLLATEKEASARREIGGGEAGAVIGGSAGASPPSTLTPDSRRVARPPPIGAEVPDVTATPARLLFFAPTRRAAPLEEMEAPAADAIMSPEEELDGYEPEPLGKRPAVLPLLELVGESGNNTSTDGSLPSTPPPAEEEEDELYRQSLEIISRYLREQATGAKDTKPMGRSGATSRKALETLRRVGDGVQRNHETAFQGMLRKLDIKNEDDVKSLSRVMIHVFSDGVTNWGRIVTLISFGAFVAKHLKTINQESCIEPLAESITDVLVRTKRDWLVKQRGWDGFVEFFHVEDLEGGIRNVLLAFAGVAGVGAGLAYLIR
# [6] = target: T1, Small ubiquitin-related modifier 1; assay: inhibitors of SUMO1 partner interactions, dose response, biochemical, FRET (AID 624383); assay type: functional; conditions: read-out: IC50_Mean
# [7] = HEK293 cell cytotoxicity, dose response, cytotoxicity control, plate reader, cherry-picked samples (AID 743446); assay type: functional, cell-based
# [8] = HepG2 cell cytotoxicity, dose response, cytotoxicity control, plate reader, cherry-pick, antagonist series (AID 743416); assay type: functional, cell-based
# [9] = LGR2 antagonists, dose response, cell-based, HEK293, CRE-luciferase reporter, cherry pick, set 2 (AID 743343); assay type: functional;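 also: transfected cells were stimulated with diluted bursicon conditioned medium after compound addition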
# [10] = MC4R antagonists, dose response, counter-screen for LGR2 antagonist project, cell-based, plate reader, cherry pick (AID 743444); assay type: functional;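 also: transfected HEK 293 cells stimulated with alpha-MSH peptide; potency of inhibitors of the alpha-MSH evoked signal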
# [11] = A549 cell cytotoxicity, dose response, cytotoxicity control, plate reader, cherry-pick, antagonist series (AID 743412); assay type: functional, cell-based
# [12] = control 3'UTR Renilla luciferase suppression, dose response, counter-screen for Shn3 inhibitor project, cell-based, Clone20-Shn3RL, cherry-picked (AID 624133); assay type: functional
# INS1 = assay: beta cell apoptosis inhibitors, cytokine rescue, dose response, luminescence, retest (AID 449756); assay type: functional, cell-based; conditions: Rattus norvegicus;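 also: cell death triggered by IL-1 beta plus TNF-alpha plus IFN-gamma mixture; protective hits raise ATP signal compared with cytokine alone wells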
# [13] = target: T2, COUP transcription factor 2 (Homo sapiens, UniProt P24468); assay: Luminescence-based cell-based high throughput dose response assay to identify inhibitors of COUP-TFII (NR2F2).; assay type: functional;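 also: HEK293 cells transiently cotransfected with COUP-TFII expression vector and reporter; luciferase reporter luminescence driven by COUP-TFII from the pX2-168 reporter plasmid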
# T2 sequence (P24468 whole entry): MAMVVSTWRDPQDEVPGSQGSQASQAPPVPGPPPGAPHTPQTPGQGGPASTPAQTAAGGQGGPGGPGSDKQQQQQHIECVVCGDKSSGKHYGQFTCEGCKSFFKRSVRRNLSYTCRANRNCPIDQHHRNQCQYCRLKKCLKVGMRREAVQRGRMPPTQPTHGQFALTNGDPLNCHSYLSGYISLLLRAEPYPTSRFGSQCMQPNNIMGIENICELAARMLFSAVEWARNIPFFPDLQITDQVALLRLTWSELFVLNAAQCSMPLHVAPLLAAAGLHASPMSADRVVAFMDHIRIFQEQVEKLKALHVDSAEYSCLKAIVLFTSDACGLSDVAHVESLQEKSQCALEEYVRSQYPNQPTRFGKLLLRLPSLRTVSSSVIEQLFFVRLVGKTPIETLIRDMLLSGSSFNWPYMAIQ
# [14] = Shn3 3'UTR reporter inhibitors, dose response, cell-based, Clone20 osteoblasts, firefly luciferase, cherry-picked (AID 624132); assay type: functional;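 also: firefly luciferase luminescence from reporter carrying the Shn3 3'UTR in osteoblasts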
# [15] = HepG2 cell cytotoxicity, dose response, cytotoxicity control for Shn3 inhibitor project, CellTiter-Glo, cherry-picked (AID 624134); assay type: functional, cell-based
# Mu-type opioid receptor = Mu-type opioid receptor (Homo sapiens, UniProt P35372); assay type: functional, cell-based;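 also: U2OS cells with beta-arrestin recruitment to OPRM1 by beta-gal complementation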
# Chain of Mu-type opioid receptor (P35372 whole entry): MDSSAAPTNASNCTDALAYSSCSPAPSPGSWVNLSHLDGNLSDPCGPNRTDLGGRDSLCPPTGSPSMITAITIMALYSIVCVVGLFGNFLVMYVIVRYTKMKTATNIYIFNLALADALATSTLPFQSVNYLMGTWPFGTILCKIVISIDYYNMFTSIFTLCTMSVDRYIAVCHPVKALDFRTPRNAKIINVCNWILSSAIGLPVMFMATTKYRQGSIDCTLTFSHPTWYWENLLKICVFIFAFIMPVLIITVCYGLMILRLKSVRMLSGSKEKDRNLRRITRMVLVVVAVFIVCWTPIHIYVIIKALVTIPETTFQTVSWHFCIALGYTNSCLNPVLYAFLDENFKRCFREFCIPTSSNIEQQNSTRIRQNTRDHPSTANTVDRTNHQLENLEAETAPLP
# [16] = target: 5-hydroxytryptamine receptor 2A (Mus musculus, UniProt P35363); assay type: functional, cell-based;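 also: CHO-K1 cells with tagged receptor and beta-arrestin; agonist potency measured as compound-induced activation of the receptor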
# Chain of 5-hydroxytryptamine receptor 2A (P35363 whole entry): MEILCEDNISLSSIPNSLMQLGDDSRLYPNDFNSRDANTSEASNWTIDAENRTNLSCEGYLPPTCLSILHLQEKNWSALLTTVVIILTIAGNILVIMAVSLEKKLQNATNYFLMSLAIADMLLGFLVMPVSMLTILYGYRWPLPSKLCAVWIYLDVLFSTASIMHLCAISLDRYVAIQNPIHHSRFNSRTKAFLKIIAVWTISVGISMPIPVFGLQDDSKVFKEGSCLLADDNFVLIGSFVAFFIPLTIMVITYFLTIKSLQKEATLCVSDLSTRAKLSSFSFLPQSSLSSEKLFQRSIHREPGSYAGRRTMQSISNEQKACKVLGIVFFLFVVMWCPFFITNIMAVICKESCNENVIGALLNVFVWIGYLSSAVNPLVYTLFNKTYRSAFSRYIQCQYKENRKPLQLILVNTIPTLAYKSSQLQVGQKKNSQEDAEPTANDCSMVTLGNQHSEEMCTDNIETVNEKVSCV
# cells [17] = assay type: functional, cell-based
# [18] = target: T3, Nuclear receptor subfamily 0 group B member 1 (Homo sapiens, UniProt P51843); assay type: functional, cell-based;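 also: HEK293T cells transfected with SF-1 and DAX-1 plus StAR promoter luciferase reporter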
# T3 sequence (P51843 whole entry): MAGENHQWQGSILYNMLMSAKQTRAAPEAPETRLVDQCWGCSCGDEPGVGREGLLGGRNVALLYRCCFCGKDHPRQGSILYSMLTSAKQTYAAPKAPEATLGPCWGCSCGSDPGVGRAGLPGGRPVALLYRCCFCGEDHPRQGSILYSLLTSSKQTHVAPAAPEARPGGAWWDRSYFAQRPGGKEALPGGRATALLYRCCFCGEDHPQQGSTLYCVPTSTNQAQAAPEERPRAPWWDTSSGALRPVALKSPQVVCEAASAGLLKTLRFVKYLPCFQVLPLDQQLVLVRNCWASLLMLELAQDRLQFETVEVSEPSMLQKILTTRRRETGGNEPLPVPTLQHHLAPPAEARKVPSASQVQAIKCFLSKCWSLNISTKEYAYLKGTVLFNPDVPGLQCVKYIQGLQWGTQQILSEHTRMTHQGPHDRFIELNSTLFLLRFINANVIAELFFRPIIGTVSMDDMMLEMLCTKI
# [19] = target: T4, Sentrin-specific protease 8 (Homo sapiens, UniProt Q96LD8); assay type: functional
# T4 sequence (Q96LD8 whole entry): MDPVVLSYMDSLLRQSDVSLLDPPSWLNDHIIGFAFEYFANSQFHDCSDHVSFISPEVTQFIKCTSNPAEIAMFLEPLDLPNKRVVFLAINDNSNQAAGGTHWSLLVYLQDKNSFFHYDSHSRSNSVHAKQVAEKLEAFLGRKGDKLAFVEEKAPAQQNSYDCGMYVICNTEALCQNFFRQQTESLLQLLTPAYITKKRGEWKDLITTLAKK
# [20] = target: T4, Sentrin-specific protease 8; assay type: functional; remark: listed apart in the source
# Prothrombin = Prothrombin (Bos taurus, UniProt P00735); assay: thrombin inhibition, dose response, biochemical, fluorescence polarization, uHTS hits (AID 602369); assay type: functional
# [21] = target: 72 kDa type IV collagenase (Homo sapiens, UniProt P08253); assay: Dose Response validation of uHTS RPN11 inhibitor hits using a MMP-2 Fluorescence assay.; assay type: functional
# Chain of 72 kDa type IV collagenase (P08253 whole entry): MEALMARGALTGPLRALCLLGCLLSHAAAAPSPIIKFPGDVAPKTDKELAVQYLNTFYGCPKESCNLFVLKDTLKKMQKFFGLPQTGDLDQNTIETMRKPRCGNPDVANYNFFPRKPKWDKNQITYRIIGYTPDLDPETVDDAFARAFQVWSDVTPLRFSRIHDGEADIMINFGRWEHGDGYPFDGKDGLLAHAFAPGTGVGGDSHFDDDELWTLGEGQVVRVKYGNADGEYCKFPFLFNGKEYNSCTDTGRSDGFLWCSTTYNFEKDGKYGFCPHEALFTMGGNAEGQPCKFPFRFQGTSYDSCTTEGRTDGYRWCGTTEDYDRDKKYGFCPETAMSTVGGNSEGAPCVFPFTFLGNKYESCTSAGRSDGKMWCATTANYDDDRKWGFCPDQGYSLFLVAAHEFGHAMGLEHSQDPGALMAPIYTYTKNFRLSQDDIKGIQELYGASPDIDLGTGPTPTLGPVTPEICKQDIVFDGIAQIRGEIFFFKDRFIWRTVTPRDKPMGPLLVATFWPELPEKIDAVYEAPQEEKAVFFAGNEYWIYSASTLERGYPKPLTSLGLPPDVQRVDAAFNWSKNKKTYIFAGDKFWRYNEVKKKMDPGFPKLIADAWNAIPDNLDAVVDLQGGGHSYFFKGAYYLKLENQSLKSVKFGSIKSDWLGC
# [22] = target: T5, Low molecular weight phosphotyrosine protein phosphatase (Homo sapiens, UniProt P24666); assay type: functional; conditions: read-out: IC50_Mean
# T5 sequence (P24666 whole entry): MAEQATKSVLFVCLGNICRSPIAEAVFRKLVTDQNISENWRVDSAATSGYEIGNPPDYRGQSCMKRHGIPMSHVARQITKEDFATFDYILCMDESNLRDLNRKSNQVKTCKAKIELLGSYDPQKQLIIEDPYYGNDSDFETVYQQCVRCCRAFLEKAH
# [23] = target: 26S proteasome non-ATPase regulatory subunit 14 (Homo sapiens, UniProt O00487); assay: inhibition of proteasome subunit RPN11 – biochemical, fluorescence polarization, uHTS hits, confirmation (AID 602368); assay type: functional
# Chain of 26S proteasome non-ATPase regulatory subunit 14 (O00487 whole entry): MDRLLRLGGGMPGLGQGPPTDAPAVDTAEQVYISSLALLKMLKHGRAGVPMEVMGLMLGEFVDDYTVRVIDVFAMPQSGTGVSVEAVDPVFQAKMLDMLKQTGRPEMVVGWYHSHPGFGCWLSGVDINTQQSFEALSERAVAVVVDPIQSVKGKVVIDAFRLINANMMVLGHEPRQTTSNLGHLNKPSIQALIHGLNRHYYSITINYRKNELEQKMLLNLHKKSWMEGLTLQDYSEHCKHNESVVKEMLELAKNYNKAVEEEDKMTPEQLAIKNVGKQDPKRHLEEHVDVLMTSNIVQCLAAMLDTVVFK
# Beta-lactamase [24] = target: Beta-lactamase (Salmonella choleraesuis (strain SC-B67), UniProt Q5J463)
# Chain of Beta-lactamase (Salmonella choleraesuis (strain SC-B67), UniProt Q5J463) (Q5J463 whole entry): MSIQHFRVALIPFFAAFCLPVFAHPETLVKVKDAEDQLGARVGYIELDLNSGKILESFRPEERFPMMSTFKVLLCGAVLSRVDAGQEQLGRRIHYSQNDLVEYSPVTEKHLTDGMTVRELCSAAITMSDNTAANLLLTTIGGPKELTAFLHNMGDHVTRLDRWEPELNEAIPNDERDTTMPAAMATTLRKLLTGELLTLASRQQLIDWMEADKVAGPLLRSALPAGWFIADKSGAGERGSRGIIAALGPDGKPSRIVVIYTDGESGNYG
# Beta Lactamase = Beta Lactamase (Pseudomonas aeruginosa, UniProt Q932Y6);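 also: confirmatory high-throughput screen measuring VIM-2 metallo-beta-lactamase inhibition by epi-absorbance in dose response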
# Chain of Beta Lactamase (Q932Y6 whole entry): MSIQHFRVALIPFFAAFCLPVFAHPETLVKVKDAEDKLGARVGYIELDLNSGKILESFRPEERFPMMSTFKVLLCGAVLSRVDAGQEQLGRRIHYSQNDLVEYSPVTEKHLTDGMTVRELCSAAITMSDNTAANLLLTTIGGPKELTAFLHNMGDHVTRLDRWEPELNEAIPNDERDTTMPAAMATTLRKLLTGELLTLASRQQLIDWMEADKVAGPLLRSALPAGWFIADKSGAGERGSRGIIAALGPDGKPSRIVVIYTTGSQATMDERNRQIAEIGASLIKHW
# Beta-lactamase [25] = target: Beta-lactamase (Pseudomonas aeruginosa, UniProt Q79MP6);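 also: biochemical dose-response test of metallo-beta-lactamase enzyme inhibition, read out by epi-absorbance; purified recombinant IMP-1 metallo-beta-lactamase with nitrocefin as substrate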
# Chain of Beta-lactamase (Pseudomonas aeruginosa, UniProt Q79MP6) (Q79MP6 whole entry): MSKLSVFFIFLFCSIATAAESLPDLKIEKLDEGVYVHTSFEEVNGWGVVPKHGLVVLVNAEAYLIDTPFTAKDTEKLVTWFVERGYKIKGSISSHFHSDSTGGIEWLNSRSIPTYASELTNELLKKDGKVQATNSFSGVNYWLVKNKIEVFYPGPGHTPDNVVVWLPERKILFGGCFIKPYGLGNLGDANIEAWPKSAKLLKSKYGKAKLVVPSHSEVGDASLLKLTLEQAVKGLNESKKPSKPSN
# [26] = target: T5, Low molecular weight phosphotyrosine protein phosphatase; assay type: functional; conditions: read-out: IC50_Mean; remark: listed apart in the source
# [27] = target: T6, Trace amine-associated receptor 1 (Homo sapiens, UniProt Q96RJ0); assay: Fluorescence-based cell-based high throughput dose response assay to identify agonists of the human trace amine associated receptor 1 (TAAR1).; assay type: functional
# T6 sequence (Q96RJ0 whole entry): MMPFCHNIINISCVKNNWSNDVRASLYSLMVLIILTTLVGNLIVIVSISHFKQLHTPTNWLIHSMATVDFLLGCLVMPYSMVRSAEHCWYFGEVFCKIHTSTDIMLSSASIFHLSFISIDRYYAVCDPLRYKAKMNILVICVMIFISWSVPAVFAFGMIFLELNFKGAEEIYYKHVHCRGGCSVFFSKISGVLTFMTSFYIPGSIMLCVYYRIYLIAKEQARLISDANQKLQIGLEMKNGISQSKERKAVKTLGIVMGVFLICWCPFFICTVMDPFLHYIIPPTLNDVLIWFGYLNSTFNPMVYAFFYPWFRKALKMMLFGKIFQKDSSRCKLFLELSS
# cells [28] = assay type: functional, cell-based; remark: listed apart in the source
# [29] = target: T6, Trace amine-associated receptor 1; assay: Counterscreen for agonists of the human trace amine associated receptor 1 (hTAAR1): Fluorescence-based cell-based high throughput dose response assay to identify hTAAR1 agonist that also desensitize TAAR1 receptor response.; assay type: functional
# cells [30] = assay type: functional, cell-based; remark: listed apart in the source
# [31] = target: T7, Rac GTPase-activating protein 1 (Homo sapiens, UniProt Q9H0H5); assay: MgcRacGAP GTPase-activating activity inhibitors, confirmation, biochemical, ADP Hunter fluorescence, primary and confirmatory (AID 624330); assay type: functional
# T7 sequence (Q9H0H5 whole entry): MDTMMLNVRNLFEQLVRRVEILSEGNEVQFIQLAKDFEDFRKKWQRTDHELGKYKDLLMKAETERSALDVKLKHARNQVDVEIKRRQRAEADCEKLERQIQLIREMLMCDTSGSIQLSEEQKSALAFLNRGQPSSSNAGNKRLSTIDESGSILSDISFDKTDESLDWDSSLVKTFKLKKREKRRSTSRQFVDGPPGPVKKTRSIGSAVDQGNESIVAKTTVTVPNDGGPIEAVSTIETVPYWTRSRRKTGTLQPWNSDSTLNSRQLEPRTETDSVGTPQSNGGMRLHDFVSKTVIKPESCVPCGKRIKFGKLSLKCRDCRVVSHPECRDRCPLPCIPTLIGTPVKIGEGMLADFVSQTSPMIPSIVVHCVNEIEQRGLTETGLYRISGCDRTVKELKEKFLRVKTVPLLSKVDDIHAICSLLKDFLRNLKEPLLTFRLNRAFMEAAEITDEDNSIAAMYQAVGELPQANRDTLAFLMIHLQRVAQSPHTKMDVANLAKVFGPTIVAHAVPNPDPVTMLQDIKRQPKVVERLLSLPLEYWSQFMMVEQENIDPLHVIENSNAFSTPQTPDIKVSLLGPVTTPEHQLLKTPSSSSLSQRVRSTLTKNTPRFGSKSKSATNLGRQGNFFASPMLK
# [32] = target: T8, Voltage-gated N-type calcium channel alpha-1B subunit/Amyloid beta A4 precursor protein-binding family A member 1 (Homo sapiens, UniProt Q00975+Q02410); assay type: protein assay
# [33] = target: T8, Voltage-gated N-type calcium channel alpha-1B subunit/Amyloid beta A4 precursor protein-binding family A member 1; assay type: protein assay; remark: listed apart in the source
# Chain of Beta-galactosidase (Q8VNN2 whole entry): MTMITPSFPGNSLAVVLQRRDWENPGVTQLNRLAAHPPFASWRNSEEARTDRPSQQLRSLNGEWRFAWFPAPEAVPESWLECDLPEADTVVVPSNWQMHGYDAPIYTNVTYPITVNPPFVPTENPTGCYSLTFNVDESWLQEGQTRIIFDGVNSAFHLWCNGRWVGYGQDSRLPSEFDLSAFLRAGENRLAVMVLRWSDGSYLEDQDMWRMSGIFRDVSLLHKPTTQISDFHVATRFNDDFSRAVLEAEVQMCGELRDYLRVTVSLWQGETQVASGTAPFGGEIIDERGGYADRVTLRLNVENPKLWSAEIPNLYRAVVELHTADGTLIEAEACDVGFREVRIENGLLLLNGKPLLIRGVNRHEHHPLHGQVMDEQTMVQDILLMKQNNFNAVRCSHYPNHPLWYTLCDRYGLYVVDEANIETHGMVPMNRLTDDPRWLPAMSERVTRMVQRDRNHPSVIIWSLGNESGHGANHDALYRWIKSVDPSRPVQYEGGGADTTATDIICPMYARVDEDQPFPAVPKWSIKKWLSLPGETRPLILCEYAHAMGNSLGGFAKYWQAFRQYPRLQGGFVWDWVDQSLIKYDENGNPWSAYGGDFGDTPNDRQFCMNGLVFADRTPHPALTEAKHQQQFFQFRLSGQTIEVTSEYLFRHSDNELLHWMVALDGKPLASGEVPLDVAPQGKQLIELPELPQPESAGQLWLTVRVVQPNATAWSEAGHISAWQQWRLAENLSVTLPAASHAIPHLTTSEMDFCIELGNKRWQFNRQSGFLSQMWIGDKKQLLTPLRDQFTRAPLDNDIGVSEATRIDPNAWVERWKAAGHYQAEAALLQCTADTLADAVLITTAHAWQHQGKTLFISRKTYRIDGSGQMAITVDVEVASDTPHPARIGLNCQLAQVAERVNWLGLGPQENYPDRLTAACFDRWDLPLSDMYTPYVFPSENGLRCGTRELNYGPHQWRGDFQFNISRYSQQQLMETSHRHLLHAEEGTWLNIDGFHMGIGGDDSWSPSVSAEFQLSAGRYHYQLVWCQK
smiles,measurement,setting,value
Cc1cc(C)c(S(=O)(=O)N2CCN(C(=O)C3COc4ccccc4O3)CC2)c(C)c1 (stereo not drawn),IC50,Beta-galactosidase,> 80 µM (inactive)
Cc1ccc(-c2sc(C(=O)NN)c(C)c2C#N)cc1,IC50,Galanin receptor type 3,> 29.9 µM (inactive)
same,EC50,cells [1],> 29.9 µM (inactive)
COc1cc(/C=C2\SC(N)=NC2=O)ccc1OCC(=O)Nc1ccc(C)cc1,IC50,[2],28.3 µM (inactive)
Cc1ccccc1OCCCN1C(=O)C(=O)c2cccc(C)c21,IC50,[3],> 122 µM (inactive)
O=C(NC1CC1)c1cc(-c2ccco2)nc2ccccc12,IC50,[4],> 66.6 µM (inactive)
same,IC50,[5],1.71 µM (active)
same,IC50,[6],8.06 µM (active)
Cc1c(Cl)c(C(=O)NN=C(S)NCc2ccco2)nn1C,IC50,[3],> 122 µM (inactive)
Cc1ccc(-c2cnc3c(Cl)c(C)nn3c2)cc1,AC50,[7],31.5 µM (active)
same,AC50,[8],40.8 µM (active)
same,AC50,[9],7.53 µM (active)
same,AC50,[10],8.19 µM (active)
same,AC50,[11],5.87 µM (active)
O=C(CSc1nnc(Cn2nnc3ccccc32)o1)N(Cc1ccc(Cl)cc1)c1ccccc1,AC50,[12],11.9 µM (active)
same,IC50,Galanin receptor type 3,1.11 µM (active)
same,AC50,INS1,4.83 µM (active)
same,IC50,[13],4.19 µM (active)
same,AC50,[14],2.29 µM (active)
same,EC50,cells [1],> 29.9 µM (inactive)
same,AC50,[15],6.74 µM (active)
C/C(=C\c1ccccc1)CN1CCN(c2ccccc2)CC1,EC50,Mu-type opioid receptor,92.5 µM (inactive)
same,EC50,[16],76.1 µM (inactive)
CCC1CCCCN1C(=O)CCS(=O)(=O)c1ccccc1 (stereo not drawn),IC50,cells [17],> 67.6 µM (inactive)
same,IC50,[18],> 67.6 µM (inactive)
Cc1cccc(N2C(=O)/C(=C\c3ccc(C(=O)O)cc3)c3ccccc3C2=O)c1,IC50,[19],6.45 µM (active)
same,IC50,[20],> 100 µM (inactive)
O=C(CSc1ccc(Br)cc1)N1CCN(C(=O)c2ccco2)CC1,IC50,Beta-galactosidase,> 80 µM (inactive)
COc1ccc(/C(C)=N/NC(=O)c2nnn(-c3nonc3N)c2-c2ccccc2)cc1,IC50,Prothrombin,> 100 µM (inactive)
same,IC50,[21],8.15 µM (active)
same,IC50,[22],> 80 µM (inactive)
same,IC50,[23],30.2 µM (active)
same,IC50,Beta-lactamase [24],> 59.6 µM (inactive)
same,IC50,Beta Lactamase,> 59.6 µM (inactive)
same,IC50,Beta-lactamase [25],> 59.6 µM (inactive)
same,IC50,[26],35.2 µM (inactive)
O=C(NCCc1ccccc1Cl)[C@@H]1CCCN1C(=O)[C@@H](NS(=O)(=O)c1ccc(F)cc1F)c1ccccc1,EC50,[27],12.4 µM (inactive)
same,EC50,cells [28],> 29.9 µM (inactive)
same,IC50,[29],5.69 µM (active)
same,IC50,cells [30],> 29.9 µM (inactive)
CC(C)n1cc(/C=N/Nc2ccc(Cl)c(C(=O)O)c2)c2ccccc21,IC50,[4],> 66.6 µM (inactive)
same,IC50,Beta-lactamase [24],> 59.6 µM (inactive)
same,IC50,Beta Lactamase,> 59.6 µM (inactive)
same,IC50,Beta-lactamase [25],> 59.6 µM (inactive)
same,IC50,[31],102 µM (active)
same,IC50,[32],41.8 µM (active)
same,IC50,[6],3.26 µM (active)
same,IC50,[33],> 50 µM (inactive)

# From ChEMBL document CHEMBL1201862, “PubChem BioAssay data set” (2004)
